Data on three compounds can be found in patent US20100215635A1, “SMALL MOLECULES TO INDUCE WEIGHT LOSS OR TO REDUCE WEIGHT GAIN” (priority 2009, published 2010).

Format in all cases: in vivo, mouse
The test system of experiment [1] is ob/ob mice. Kind of experiment: Effect on body weight of ob/ob obese mice. Particulars: for Body weight gained: 4.5 mg/kg s.c. daily for 14 days; for Body weight: 4.5 mg/kg s.c. once daily for 14 days. An excerpt:
Leptin-deficient ob/ob obese diabetic inbred, adult female mice, weighing 32-36 g at arrival, specified pathogen free (SPF) hygienic category from Charles River VRF1, were used for these experiments. The ob/ob obese mouse is an extensively used animal model for the study of non-insulin-dependent-diabetes mellitus (NIDDM). The mutation was propagated in the C57BL/6J (BL/6) inbred strain. Homozygous obese (ob/ob) animals developed hyperglycemia, hyperinsulinemia and obesity. In these animals gluconeogenesis is enhanced despite their hyperinsulinemic state. The animals were kept in macrolon cages at 22-24° C. and 50-60% humidity, with lighting regimen of 12/12 h light dark. The animals had free access tap water and were fed with a sterilized standard diet (Charles River VRF1, autoclavable). The animals were cared for according to the “Guiding Principles for the Care and Use for Animals” based upon the Helsinki declaration. The ob/ob mice gained weight rapidly and develop a marked obesity by 5-6 weeks of age. […] When arrived they were 5 weeks old (when experiment was performed with CC1) or 4.5 weeks old (when experiment was performed with CC3 and CC19); the treatments started 8 days later in the experiment performed with CC1 and 10 days later in the experiment performed with CC3 and CC19. Experimental groups selected from C57/BL or ob/ob mice were injected subcutaneously at regular intervals once daily for 14 days with CCompound1, CCompound3, or CCompound19 at the dose of 4.5-mg per kg. Other groups selected from C57/BL or ob/ob mice remained untreated during the entire length of the experiment. Body weight was measured every day or every second day for 14 days and then on days 21, 40, and 48. All untreated and treated groups included 5 animals except the CCompound1-treated group of ob/ob mice that included 9 animals. The data are expressed as the average ±standard error of mean. On day 1, body weight was measured first followed by the treatment in the CCompound1-treated group. The treatments were repeated for 14 days with no additional treatment performed during the rest of the observation period. […] In contrast, CCompound1 treated mice gained 2.6-g body weight between day 1 and 14, and also only 2.6-g between day 14 and 48. On day 14 and the following days the differences in body weight were statistically highly significant (P<0.001). It is particularly important that between day 14 and 48, weight gain in the treated group was minimal compared to the control group despite discontinuation of the treatment. […] This feature allows intermittent use of CCompound1 and analogs for weight control. On day 1, first body weight was measured, followed by the treatments with CCompound3 (5 mice) or CCompound19 (5 mice) as indicated in TABLE 4. The treatments were repeated for 14 days with no additional treatment performed during the rest of the observation period. One group of animals (5 mice) served as untreated controls. […] Mice treated with CCompound3 gained 3.3-g body weight between day 1 and 15, and 6.8-g between day 15 and 48. Mice treated with CCompound19 gained 2.6-g body weight between day 1 and 15, and 4.2-g between day 15 and 48. […] Again, both CCompound3 and particularly CCompound19 were effective reducing weight between day 15 and 48 despite discontinuation of the treatment after the last treatment on day 15.

Another experiment deals with C57/BL mice. Kind of experiment: Effect on body weight of C57/BL (non-obese control) mice. Particulars: for Body weight gained: 4.5 mg/kg s.c. daily for 14 days; for Body weight: 4.5 mg/kg s.c. once daily for 14 days. As to the method:
C57BL6 male mice (10-11 weeks old) were used as non-obese controls of ob/ob mice. These animals were kept under specified pathogen free (SPF) condition and they were fed a standard sterilized diet (Charles River) ad libitum. Experimental groups selected from C57/BL or ob/ob mice were injected subcutaneously at regular intervals once daily for 14 days with CCompound1, CCompound3, or CCompound19 at the dose of 4.5-mg per kg. Other groups selected from C57/BL or ob/ob mice remained untreated during the entire length of the experiment. Body weight was measured every day or every second day for 14 days and then on days 21, 40, and 48. All untreated and treated groups included 5 animals except the CCompound1-treated group of ob/ob mice that included 9 animals. The data are expressed as the average ±standard error of mean. This mouse strain served as the control to the ob/ob mice. On day 1, body weight was measured first followed by the treatment in the CCompound1-treated group. The treatments were repeated for 14 days. […] CCompound1 treated mice also gained 2-g body weight between day 1 and 14, and 4.2-g between day 14 and 48. This small difference between the two groups was not statistically significant. In a follow up experiment using the same treatment regimen, C57/BL mice treated with 6-mg per kg dose of CCompound1 gained 5.6-g weight gain over a 40 days period compared to 5.8-g weight gain in the control group over the same time period. Again, this small difference was not statistically significant.

Experiment [2] deals with ob/ob mice. Nature of the experiment: Effect on body weight of ob/ob obese mice. The conditions noted are these: ob/ob mice (Example 3, Table 4), 4.5 mg/kg s.c. once daily for 14 days; day 20.
[3] abbreviates: ob/ob mice (Example 3), then no treatment, between day 15 and 48 (untreated 11.9 g).
[4] abbreviates: ob/ob mice (Example 3), between day 1 and 15 (untreated 4.8 g).
Where [5] appears, read: ob/ob mice (Example 3, Table 4), day 1 (before first treatment).
The mark [6] stands for this setting: ob/ob mice (Example 3, Table 4), day 5.
Where [7] appears, read: ob/ob mice (Example 3, Table 4), day 10.
[8] abbreviates: ob/ob mice (Example 3, Table 4), day 15.
Where [9] appears, read: ob/ob mice (Example 3, Table 4), day 40, P < 0.001 vs no treatment.
The mark [10] stands for this setting: ob/ob mice (Example 3, Table 4), day 48, P < 0.001 vs no treatment.

Molecules are shown by their SMILES.

As for `Cc1c(OCC(O)C[N+](C)(C)C)cc2c(=O)c3ccccc3sc2c1C.[Cl-]` (centres unmarked) [CCcompound1, [3-(3,4-Dimethyl-9-oxo-9H-thioxanthen-2-yloxy)-2-hydroxypropyl]trimethyl-ammonium chloride], the Body weight gained with ob/ob mice [1] (ob/ob mice, then no treatment, between day 14 and 48 (untreated 11.6 g)) is on record as 2.6 g; with ob/ob mice [1] (ob/ob mice, between day 1 and 14 (untreated 4.4 g)), 2.6 g; in the experiment with C57/BL mice (between day 1 and 14 (untreated 2 g)), 2 g; with C57/BL mice (between day 14 and 48 (untreated 5.2 g; difference not statistically significant)), 4.2 g. Also, the Body weight is reported as 40.4 ± 0.7 g in the experiment on ob/ob mice [1] (ob/ob mice, day 1 (before first treatment)); 40.4 ± 0.6 g with ob/ob mice [1] (ob/ob mice, day 2); 40.6 ± 0.6 g in the experiment with ob/ob mice [1] (ob/ob mice, day 3); 40.8 ± 0.6 g with ob/ob mice [1] (ob/ob mice, day 4); 40.7 ± 0.6 g with ob/ob mice [1] (ob/ob mice, day 5); 41.0 ± 0.6 g in the experiment on ob/ob mice [1] (ob/ob mice, day 6). The Body weight is 41.5 ± 0.6 g with ob/ob mice [1] (ob/ob mice, day 7); 41.9 ± 0.7 g in the experiment on ob/ob mice [1] (ob/ob mice, day 8); 42.1 ± 0.7 g in the experiment with ob/ob mice [1] (ob/ob mice, day 9); 42.4 ± 0.7 g in the experiment with ob/ob mice [1] (ob/ob mice, day 10); 42.6 ± 0.6 g in the experiment on ob/ob mice [1] (ob/ob mice, day 11); 42.7 ± 0.6 g in the experiment with ob/ob mice [1] (ob/ob mice, day 12). For the same compound, the Body weight in the experiment on ob/ob mice [1] (ob/ob mice, day 13) was found to be 42.9 ± 0.6 g; with ob/ob mice [1] (ob/ob mice, day 14, P < 0.001 vs no treatment) it was 43.0 ± 0.7 g; with ob/ob mice [1] (ob/ob mice, day 19, P < 0.001 vs no treatment), 44.3 ± 0.9 g; in the experiment on ob/ob mice [1] (ob/ob mice, day 21, P < 0.001 vs no treatment) it was 44.5 ± 0.8 g; in the experiment with ob/ob mice [1] (ob/ob mice, day 45, P < 0.001 vs no treatment) it was 45.6 ± 1.1 g; in the experiment on ob/ob mice [1] (ob/ob mice, day 48, P < 0.001 vs no treatment) it was 45.6 ± 1.1 g. The Body weight worked out at 28.0 ± 0.7 g with C57/BL mice (day 1 (before first treatment)); 27.7 ± 0.6 g with C57/BL mice (day 2); 28.2 ± 0.7 g with C57/BL mice (day 4); 28.7 ± 0.5 g in the experiment with C57/BL mice (day 6); 28.8 ± 0.4 g in the experiment on C57/BL mice (day 8); 29.6 ± 0.7 g in the experiment with C57/BL mice (day 10). Besides, the Body weight in the experiment on C57/BL mice (day 12) turned out to be 30.3 ± 1.4 g; with C57/BL mice (day 14) it was 30.0 ± 0.9 g; with C57/BL mice (day 21) it was 30.7 ± 1.1 g; in the experiment with C57/BL mice (day 40) it was 33.9 ± 0.9 g; with C57/BL mice (day 48) it was 34.2 ± 0.8 g. Besides, the “Effect on body weight in normal mice” value in the experiment with C57/BL mice (dose range 4.5-6 mg per kg) is on record as “no effects on the body weight”. The same compound came in with a Weight gain with C57/BL mice (follow up experiment, 6 mg per kg, same regimen, over a 40 days period (control 5.8 g; not statistically significant)) of 5.6 g.
In the case of `CC[N+](C)(CC)CCOCc1ccc2sc3ccccc3c(=O)c2c1` [CCcompound3], the Body weight in the experiment on ob/ob mice [2] amounted to 42.2 ± 0.5 g; with ob/ob mice [1] (setting [5]) it was 37.0 ± 0.6 g; in the experiment on ob/ob mice [1] (setting [6]) it was 37.5 ± 1.2 g; with ob/ob mice [1] (setting [7]) it was 38.5 ± 0.9 g; in the experiment with ob/ob mice [1] (setting [8]) it was 40.3 ± 1.1 g; in the experiment on ob/ob mice [1] (setting [9]), 45.9 ± 0.8 g. In the experiment with ob/ob mice [1] (setting [10]), this compound registered a Body weight of 47.1 ± 1.0 g. The results for the Body weight gained in the experiment on ob/ob mice [1] (setting [3]) and in the experiment on ob/ob mice [1] (setting [4]) were 6.8 g and 3.3 g, respectively.
In the case of `C[N+](C)(C)CCC=C1c2ccccc2Sc2ccccc21.[I-]` [CCcompound19, N,N,N-trimethyl-3-(9H-thioxanthen-9-ylidene)-propane-1-aminium iodide], the Body weight in the experiment with ob/ob mice [2] is reported as 42.1 ± 0.9 g; with ob/ob mice [1] (setting [5]), 38.1 ± 0.6 g; in the experiment with ob/ob mice [1] (setting [6]) it was 38.4 ± 0.7 g; in the experiment with ob/ob mice [1] (setting [7]), 39.7 ± 0.4 g; with ob/ob mice [1] (setting [8]), 40.7 ± 0.5 g; in the experiment on ob/ob mice [1] (setting [9]) it was 43.8 ± 1.3 g. The compound also gave a Body weight in the experiment with ob/ob mice [1] (setting [10]) of 44.9 ± 0.8 g. The figures for the Body weight gained with ob/ob mice [1] (setting [3]) and with ob/ob mice [1] (setting [4]) were 4.2 g and 2.6 g, respectively.
